Measurements taken from US20230192720A1, “MACROCYCLIC COMPOUNDS” (ZENO MANAGEMENT, INC., priority 2019, published 2023).

Each compound was assayed on NCI-H929 cells (assay: NCI-H929 cell proliferation assay (CellTiter-Glo)). Details: 72 h compound treatment.
Type: cell-based
Experimental: NCI-H929 Cell Proliferation Assay
Cell proliferation was measured using the CellTiter-Glo® Luminescent Cell Viability Assay. The assay involved the addition of a single reagent (CellTiter-Glo® Reagent) directly to cells cultured in serum-supplemented medium. NCI-H929 (ATCC CRL-9068) cells were cultured according to ATCC recommendations and were seeded at 3,000 cells per well.
Each compound evaluated was prepared as a DMSO stock solution (10 mM). Compounds were tested in duplicate on each plate, with a 10-point serial dilution curve (1:3 dilution). Compound treatment ([…]) was added from the compound dilution plate to the cell plate. The highest compound concentration was 10 μM (final), with a 0.1% final DMSO concentration. Plates were then incubated at 37° C., 5% CO2. After 72 h of compound treatment, cell plates were equilibrated at rt for approximately 30 mins. An equi-volume amount of CellTiter-Glo® Reagent (40 μL) was added to each well. Plates were mixed for 2 mins on an orbital shaker to induce cell lysis and then incubated at rt for 10 mins to stabilize the luminescent signal. Luminescence was recorded using an Envision plate reader according to CellTiter-Glo protocol. IC50 of each compound was calculated using GraphPad Prism by nonlinear regression analysis.

IC50 [µM]	Structure (SMILES)
≥ 1	CN1Cc2cc(n(C)n2)CSc2cc3c(c(c2)OCCCc2c(C(=O)O)n(C)c4c(c(Cl)ccc24)-c2c(nn4c2CCC4)C1)NCCC3 (atropisomer, axis not shown; (Ra)) [Example 3A, (Ra)-(+)-(Z)-1^6-Chloro-1^1,6^1,4-trimethyl-2^5,2^6,9^1,9^2,9^3,9^4-hexahydro-1^1H,2^4H,6^1H-10-oxa-8-thia-4-aza-9(6,8)-quinolina-1(7,3)-indola-2(3,2)-pyrrolo[1,2-b]pyrazola-6(3,5)-pyrazolacyclotridecaphane-1^2-carboxylic acid]
≥ 1	CN1Cc2cc(n(C)n2)CSc2cc3c(c(c2)OCCCc2c(C(=O)O)n(C)c4c(c(Cl)ccc24)-c2c(nn4c2CCCC4)C1)NCCC3 (atropisomer, axis not shown; (Ra)) [Example 4A, (Ra)-(+)-(Z)-1^6-Chloro-1^1,6^1,4-trimethyl-2^4,2^5,2^6,2^7,9^1,9^2,9^3,9^4-octahydro-1^1H,6^1H-10-oxa-8-thia-4-aza-9(6,8)-quinolina-2(3,2)-pyrazolo[1,5-a]pyridina-1(7,3)-indola-6(3,5)-pyrazolacyclotridecaphane-1^2-carboxylic acid]
≤ 0.1	CN1Cc2cc(n(C)n2)CSc2cc3c(c(c2)OCCCc2c(C(=O)O)n(C)c4c(c(Cl)ccc24)-c2c(nn4c2CCCC4)C1)NCCC3 (atropisomer, axis not shown; (Sa)) [Example 4B, (Sa)-(−)-(Z)-1^6-Chloro-1^1,6^1,4-trimethyl-2^4,2^5,2^6,2^7,9^1,9^2,9^3,9^4-octahydro-1^1H,6^1H-10-oxa-8-thia-4-aza-9(6,8)-quinolina-2(3,2)-pyrazolo[1,5-a]pyridina-1(7,3)-indola-6(3,5)-pyrazolacyclotridecaphane-1^2-carboxylic acid]
≥ 1	CN1Cc2cc(n(C)n2)CCc2cc3c(c(c2)OCCCc2c(C(=O)O)n(C)c4c(c(Cl)ccc24)-c2c(nn4c2CCC4)C1)NCCC3 (atropisomer, axis not shown; (Sa)) [Example 5B, (Sa)-(−)-(Z)-1^6-Chloro-1^1,6^1,4-trimethyl-2^5,2^6,9^1,9^2,9^3,9^4-hexahydro-1^1H,2^4H,6^1H-10-oxa-4-aza-9(6,8)-quinolina-1(7,3)-indola-2(3,2)-pyrrolo[1,2-b]pyrazola-6(3,5)-pyrazolacyclotridecaphane-1^2-carboxylic acid]
≤ 0.1	CN1Cc2cc(n(C)n2)CSc2cc3c(c(c2)OCCCc2c(C(=O)O)n(C)c4c(c(Cl)ccc24)-c2c(nn4c2CCC4)C1)NCCC3 (atropisomer, axis not shown; (Sa)) [Example 3B, (Sa)-(−)-(Z)-1^6-Chloro-1^1,6^1,4-trimethyl-2^5,2^6,9^1,9^2,9^3,9^4-hexahydro-1^1H,2^4H,6^1H-10-oxa-8-thia-4-aza-9(6,8)-quinolina-1(7,3)-indola-2(3,2)-pyrrolo[1,2-b]pyrazola-6(3,5)-pyrazolacyclotridecaphane-1^2-carboxylic acid]
≥ 1	CN1Cc2cc(n(C)n2)CCc2cc3c(c(c2)OCCCc2c(C(=O)O)n(C)c4c(c(Cl)ccc24)-c2c(nn4c2CCCC4)C1)NCCC3 (atropisomer, axis not shown; (Sa)) [Example 6B, (Sa)-(−)-(Z)-1^6-Chloro-1^1,6^1,4-trimethyl-2^4,2^5,2^6,2^7,9^1,9^2,9^3,9^4-octahydro-1^1H,6^1H-10-oxa-4-aza-9(6,8)-quinolina-2(3,2)-pyrazolo[1,5-a]pyridina-1(7,3)-indola-6(3,5)-pyrazolacyclotridecaphane-1^2-carboxylic acid]

More lines, now with the values behind:

Structure (SMILES)	IC50 [µM]
Cn1nc2cc1CSc1cc3c(c(c1)OCCCc1c(C(=O)O)n(C)c4c(c(F)ccc14)-c1c(nn4c1CCCC4)CSC2)NCCC3 (atropisomer, axis not shown; (Sa)) [Example 8B, (Sa)-(−)-(Z)-1^6-Fluoro-1^1,6^1-dimethyl-2^4,2^5,2^6,2^7,9^1,9^2,9^3,9^4-octahydro-1^1H,6^1H-10-oxa-4,8-dithia-9(6, 8)-quinolina-2(3,2)-pyrazolo[1,5-a]pyridina-1(7,3)-indola-6(3,5)-pyrazolacyclotridecaphane-1^2-carboxylic acid]	0.1 to 1
Cc1nn(C23CC(C2)C3)c2c1-c1c(F)ccc3c(c(C(=O)O)n(C)c13)CCCOc1cc(cc3c1NCCC3)SCc1cc(nn1C)CSC2 (atropisomer, axis not shown; (Ra)) [Example 10A, (Ra)-(+)-(Z)-2^1-(Bicyclo[1.1.1]pentan-1-yl)-1^6-fluoro-1^1,2^3,6^1-trimethyl-9^1,9^2,9^3,9^4-tetrahydro-1^1H,2^1H,6^1H-10-oxa-4,8-dithia-9(6,8)-quinolina-1(7,3)-indola-2(4,5),6(3,5)-dipyrazolacyclotridecaphane-1^2-carboxylic acid]	≥ 1
Cn1nc2cc1CSc1cc3c(c(c1)OCCCc1c(C(=O)O)n(C)c4c(c(Cl)ccc14)-c1c(nn4c1CCCC4)CNC2)NCCC3 (atropisomer, axis not shown; (Ra)) [Example 12A, (Ra)-(+)-(Z)-1^6-Chloro-1^1,6^1-dimethyl-2^4,2^5,2^6,2^7,9^1,9^2,9^3,9^4-octahydro-1^1H,6^1H-10-oxa-8-thia-4-aza-9(6,8)-quinolina-2(3,2)-pyrazolo[1,5-a]pyridina-1(7,3)-indola-6(3,5)-pyrazolacyclotridecaphane-1^2-carboxylic acid]	≥ 1
Cn1nc2cc1CSc1cc3c(c(c1)OCCCc1c(C(=O)O)n(C)c4c(c(F)ccc14)-c1c(nn4c1CCCC4)CSC2)NCCC3 (atropisomer, axis not shown; (Ra)) [Example 8A, (Ra)-(+)-(Z)-1^6-Fluoro-1^1,6^1-dimethyl-2^4,2^5,2^6,2^7,9^1,9^2,9^3,9^4-octahydro-1^1H,6 ^1H-10-oxa-4,8-dithia-9(6, 8)-quinolina-2(3,2)-pyrazolo[1,5-a]pyridina-1(7,3)-indola-6(3,5)-pyrazolacyclotridecaphane-1^2-carboxylic acid]	≥ 1
Cc1nn(C23CC(C2)C3)c2c1-c1c(Cl)ccc3c(c(C(=O)O)n(C)c13)CCCOc1cc(cc3c1NCCC3)SCc1cc(nn1C)CSC2 (atropisomer, axis not shown; (Ra)) [Example 9A, (Ra)-(+)-(Z)-2^1-(Bicyclo [1.1.1]pentan-1-yl)-1^6-chloro-1^1,2^3,6^1-trimethyl-9^1,9^2,9^3,9^4-tetrahydro-1^1H,2^1H,6^1H-10-oxa-4,8-dithia-9(6,8)-quinolina-1(7,3)-indola-2(4,5),6(3,5)-dipyrazolacyclotridecaphane-1^2-carboxylic acid]	≥ 1

Same assay, conditions: Homo sapiens, NCI-H929, 72 h, 72 h compound treatment

IC50 [µM]	Structure (SMILES)
≥ 1	Cn1nc2cc1CSc1cc3c(c(c1)OCCCc1c(C(=O)O)n(C)c4c(c(Cl)ccc14)-c1c(nn4c1CCC4)CSC2)NCCC3 (atropisomer, axis not shown; (Sa)) [Example 1B, (Sa)-(−)-(Z)-1^6-Chloro-1^1,6^1-dimethyl-2^5,2^6,9^1,9^2,9^3,9^4-hexahydro-1^1H,2^4H,6^1H-10-oxa-4,8-dithia-9(6,8)-quinolina-1(7,3)-indola-2(3 ,2)-pyrrolo[1,2-b]pyrazola-6(3,5)-pyrazolacyclotridecaphane-1^2-carboxylic acid]
0.1 to 1	CO[C@H]1/C=C/C[C@H](C)[C@@H](C)S(=O)(=O)NC(=O)c2ccc3c(c2)N(C[C@@H]2CC[C@H]21)C[C@@]1(CCCc2cc(Cl)ccc21)CO3 [AMG176, reference compound]
≥ 1	Cn1nc2cc1CSc1cc3c(c(c1)OCCCc1c(C(=O)O)n(C)c4c(c(Cl)ccc14)-c1c(nn4c1CCCC4)CSC2)NCCC3 (atropisomer, axis not shown; (Sa)) [Example 2B, (Sa)-(−)-(Z)-1^6-Chloro-1^1,6^1-dimethyl-2^4,2^5,2^6,2^7,9^1,9^2,9^3,9^4-octahydro-1^1H,6^1H-10-oxa-4,8-dithia-9(6,8)-quinolina-2(3,2)-pyrazolo[1,5-a]pyridina-1(7,3)-indola-6(3,5)-pyrazolacyclotridecaphane-1^2-carboxylic acid]
≤ 0.1	Cc1c2c(nn1C)CSCc1cc(n(C)n1)CSc1cc(c3ccccc3c1)OCCCc1c(C(=O)O)n(C)c3c-2c(Cl)ccc13 [AZD5991, reference compound]
≥ 1	CN1CCCc2cc3cc(c21)OCCCc1c(C(=O)O)n(C)c2c(c(Cl)ccc12)-c1c(nn2c1CCC2)CSCc1cc(n(C)n1)CS3 (atropisomer, axis not shown; (Ra)) [Example 13A, (Ra)-(+)-(Z)-1^6-Chloro-1^1,6^1,9^1-trimethyl-2^5,2^6,9^1,9^2,9^3,9^4-hexahydro-1^1H,2^4H,6^1H-10-oxa-4,8-dithia-9(6,8)-quinolina-1(7,3)-indola-2(3,2)-pyrrolo[1,2-b]pyrazola-6(3,5)-pyrazolacyclotridecaphane-1^2-carboxylic acid]
0.1 to 1	Cn1nc2cc1CSc1cc3c(c(c1)OCCCc1c(C(=O)O)n(C)c4c(c(F)ccc14)-c1c(nn4c1CCC4)CSC2)NCCC3 (atropisomer, axis not shown; (Ra)) [Example 7A, (Ra)-(+)-(Z)-1^6-Fluoro-1^1,6^1-dimethyl-2^5,2^6,9^1,9^2,9^3,9^4-hexahydro-1^1H,2^4H,6^1H-10-oxa-4,8-dithia-9(6,8)-quinolina-1(7,3)-indola-2(3,2)-pyrrolo[1,2-b]pyrazola-6(3,5)-pyrazolacyclotridecaphane-1^2-carboxylic acid]
